Values of other authors as cited in patent US20140107053A1, “APPLES WITH HIGH POLYPHENOLIC CONTENT” (CORESSENCE LIMITED, priority 2006, published 2014).

Legend:
[1] = indicated by Tmax values in human studies
[2] = compared to (−)-epicatechin monomers (Shoji et al. 2006)

| Compound | detection in human plasma | site of absorption [1] | other results |
| --- | --- | --- | --- |
| Oc1cc(O)c2c(c1)O[C@H](c1ccc(O)c(O)c1)[C@H](O)[C@H]2c1c(O)cc2c(c1O)C[C@@H](O)[C@@H](c1ccc(O)c(O)c1)O2 [Apple B5, epicatechin-(4β-6)-epicatechin] |  |  | detection in plasma (after chocolate consumption (Holt et al. 2002)): could not be detected |
| O.Oc1cc(O)c2c(c1)O[C@H](c1ccc(O)c(O)c1)[C@@H](O)C2 [catechin] |  | absorbed mainly in the small intestine | bioavailability [2]: relatively low bioavailability |
| epicatechin |  | absorbed mainly in the small intestine |  |

Second part, led by results:

| detection in human plasma | site of absorption [1] | Compound | other results |
| --- | --- | --- | --- |
| detected at low levels |  | Oc1cc(O)c2c(c1)O[C@H](c1ccc(O)c(O)c1)[C@H](O)[C@H]2c1c(O)cc(O)c2c1O[C@H](c1ccc(O)c(O)c1)[C@@H](O)C2 [Apple B1, epicatechin-(4β-8)-catechin] |  |
| detected at low levels |  | Oc1cc(O)c2c(c1)O[C@H](c1ccc(O)c(O)c1)[C@H](O)[C@H]2c1c(O)cc(O)c2c1O[C@H](c1ccc(O)c(O)c1)[C@H](O)C2 [Apple B2, epicatechin-(4β-8)-epicatechin] |  |
